According to patent publication US20230089267A1, “Compositions and Methods For Reducing Immune Intolerance and Treating Autoimmune Disorders” (Lapix Therapeutics, Inc., priority 2021, published 2023):

Tests used:
DSS-induced IBD model = assay: Dextran sulfate sodium (DSS)-induced IBD model; type: in vivo, mice; conditions: 30 μg SC for 7 days then 3 μg SC for 7 days, both disease cycles
Procedure: IBD was induced in 6-8-week-old female C57/B6 mice by adding 3% DSS (Sigma Aldrich) in their drinking water for 3 days on 2 different occasions (days 0, 1, and 2 of the induction phase and days 11, 12, and 13 of the re-exposure phase). One group (n=5) was treated with Compound 2 (30 μg SC for 7 days) during the disease induction phase followed by a lower dose of Compound 2 (3 μg SC for 7 days) during the disease re-exposure phase. […] Mice body weight was monitored daily starting on day 0.

[1] = Pilot stability study of oral solution with HPBCD; type: physicochemical
Procedure: Oral dosing solutions of different concentrations of Compound 2 were compounded ranging from 0.02 mg/ml to 3 mg/ml using a 1:80 ratio of Compound 2:HPBCD. Briefly, the compounding was performed by weighing and dissolving HPBCD in sterile HPLC grade water. Then, Compound 2 was weighed and added to the HPBCD solution in an appropriate container. To enhance dissolution, sonication and magnetic stirring were alternated to obtain a clear solution. Then, the solution was dispensed into PET amber bottles, appropriately labeled and stored under refrigeration until dosing.
A pilot stability study was performed on a 0.7 mg/ml Compound 2 oral solution at three temperatures: −20° C., 4° C., and room temperature (RT).
Samples were also subjected to three freeze-thaw cycles (−20° C. to room temperature). Solutions were evaluated for clarity. […] The potency of these solutions was also determined using an LC/MS assay.

passive MG model = assay: Passive myasthenia gravis model, adoptive transfer to RAG2−/− mice; type: in vivo; conditions: by day 10, SC daily for ten days
Procedure: In this passive MG model in B6 mice, donor mice (n=20, aged 6-8 weeks) were immunized with complete Freund's adjuvant (CFA) and nicotinic acetylcholine receptor (AChR) emulsion weekly for four weeks. Seven days after the last immunization, splenocytes were collected, and 10^6 cells/mouse were transferred to RAG2^−/− mice. The recipient mice (n=10/group) were treated one day after adoptive transfer with prednisone (1 μg/mouse) SC daily for ten days after disease onset or Compound 2 3 μg SC daily for ten days after disease onset, or were left untreated. Minimal manifestation of disease was defined as a return to a clinical score of 1 after an exacerbation (score 2 or higher). Time to return to minimal score was logged, and the likelihood of return was plotted for untreated animals, and standard of care (SOC; prednisone)- and Compound 2-treated animals.

[2] = system: MOG35-55-induced murine EAE model; assay: Escalation treatment paradigm in MOG35-55-induced murine EAE model (Example 8); type: in vivo, mice
Procedure: Compound 2 (0.03 mg/ml) was formulated with hydroxypropyl beta cyclodextrin (HPCD) 1:80 (Compound 2:HPCD) and stored at 4° C. until use. Natalizumab, an anti-α4β1 integrin antibody is a monoclonal antibody that is approved by U.S. Food and Drug Administration (FDA) for the treatment of relapsing forms of MS. […] Natalizumab was diluted in PBS to a final concentration of 15 mg/ml before dosing. DMF is a disease-modifying therapy (DMT) recommended for the treatment of active relapsing multiple sclerosis. DMF (1 g) was dissolved in 50 ml of 4% solution of METHOCEL© to give a 20 mg/ml solution of DMF. The solution was stored at 4° C. until use.
Experimental autoimmune (allergic) encephalomyelitis (EAE) is considered to be the best non-clinical model of multiple sclerosis (MS). Over 6,000 papers have been published in scientific journals on this model. EAE is characterized by immune responses against CNS tissue and can be induced in animals by immunizing them against proteins of the CNS. In the active EAE model, mice are immunized with MOG35-55 peptide emulsified in Complete Freund's Adjuvant (CFA) by subcutaneous injection at the tail base (100 μg of […] per mouse) under anesthesia. On the day of injection (Day 0) and two days later (Day 2), mice receive an intraperitoneal injection of pertussis toxin (PT) in PBS at 200 ng/mouse/dose (0.1 mL). Symptoms typically develop in mice 9-14 days after immunization (Day 0). Daily observation and scoring of mice start on Day 7 and continue until the end of the study. Table 5 (see Example 4 above) details the expected clinical symptoms and the scoring criteria used in this study.
This study was designed to evaluate the early sustained use of Compound 2 versus DMF in a treatment escalation paradigm (sustained use cohort), and Compound 2 versus natalizumab after DMF failure (escalation cohort). All animals in the escalation cohorts received 14 doses of DMF or Compound 2, or 3 doses of natalizumab, as per group assignment.
Probability of disease control: Disease control was defined as a clinical score of less than 2.5. Animals in the different treatment groups were monitored after the 3:1:1 randomization. A score of 2.5 was recorded as an event and analyzed by survival analysis in GraphPad Prism 9. Animals not reaching a clinical score of 2.5 by day 14, the end of the treatment period, were assigned a score of zero for the survival analysis.
Efficacy of Compound 2 versus DMF in early sustained use: Animals in the DMF group that reached a score of 2.5 were randomized 1:1:1, as per FIG. 5A. Animals randomized to continue DMF treatment were given the remainder of the 14 DMF doses. Animals from the first randomization that were treated with Compound 2 after disease onset continued treatment for a total of 14 doses. After the 14th dose, treatment was stopped and clinical score and overall survival were monitored.
Efficacy of Compound 2 versus natalizumab in a treatment escalation cohort: Animals in the DMF group that reached a score of 2.5 were randomized 1:1:1, as per FIG. 5A. Animals randomized to natalizumab were dosed 100 μg/mouse IV every 3 days for 3 total doses starting the same day a score of 2.5 was recorded. Animals randomized to Compound 2 were dosed with 3 μg/mouse SC QD for 14 total doses starting on the same day a score of 2.5 was recorded.
Overall survival: Death due to the disease was monitored in the early sustained use cohort as well as the escalation cohort. Death by disease (clinical score of 5) was recorded as an event “1,” death due to ulceration or for ex vivo analysis was recorded as “0.” Animals surviving until the end of the study were recorded “0” on day 27. Survival analysis was done in GraphPad Prism 9.

[3] = escalation cohort after DMF failure (score 2.5), by day 14 after switching

N[C@@H](CNC(=O)Cc1ccc(OCc2cccc3ccccc23)cc1)C(=O)O [Compound 2, (S)-2-Amino-3-(2-(4-(naphthalen-1-ylmethoxy)phenyl)acetamido)propanoic acid]
body weight change (DSS-induced IBD model): less weight loss and more rapid recovery than untreated animals
potency on storage ([1]; 0.7 mg/ml oral solution, −20° C., 4° C. and room temperature): Potency was maintained over a minimum period of three months at all storage conditions
potency after storage and freeze-thaw cycles, LC/MS assay ([1]; 3-month storage and several freeze-thaw cycles): Potency was maintained
clarity after three freeze-thaw cycles ([1]; oral solution, −20° C. to room temperature): No precipitation was observed, and all solutions maintained clarity
animals returned to minimal manifestation of disease (score 1) (passive MG model): 63%
disease course in early sustained use cohort ([2]; 14 doses, followed to end of study): better overall disease control during therapy (day 1 to 14) and after stopping therapy (day 14 to end of study)
mean clinical score after switching from DMF [2, 3]: 2.6 (SD=1.1)
median clinical score after switching from DMF [2, 3]: 2.5
animals that survived until day 27, escalation cohort ([2]; switched from DMF): 8 out of 9
overall survival, early sustained use cohort ([2]; to day 27): all animals treated with Compound 2 survived until day 27
animals that progressed to a disease score of 2.5 ([2]; treatment from disease onset (score 1), over the entire treatment period (14 days)): 5 of the 9
